# Test results reported in ChEMBL document CHEMBL1201862, “PubChem BioAssay data set” (2004).
# Calls of active or inactive are those of the source.
# Columns and labels:
# [1] = biological target: Ras and Rab interactor 1/Tyrosine-protein kinase ABL1 (Homo sapiens, UniProt P00519+Q13671); type: functional;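 also: biochemical TR-FRET dose-response test measuring inhibition of binding between Rin1 and Abl proteins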
# [2] = biological target: Type-1 angiotensin II receptor (Homo sapiens, UniProt P30556); assay: AT1 receptor antagonists, dose response, selectivity assay for APJ receptor antagonist project, cell-based, uHTS hits (AID 463214); type: functional;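 also: antagonist potency against angiotensin II stimulated AT1 response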
# Type-1 angiotensin II receptor, sequence (P30556 whole entry): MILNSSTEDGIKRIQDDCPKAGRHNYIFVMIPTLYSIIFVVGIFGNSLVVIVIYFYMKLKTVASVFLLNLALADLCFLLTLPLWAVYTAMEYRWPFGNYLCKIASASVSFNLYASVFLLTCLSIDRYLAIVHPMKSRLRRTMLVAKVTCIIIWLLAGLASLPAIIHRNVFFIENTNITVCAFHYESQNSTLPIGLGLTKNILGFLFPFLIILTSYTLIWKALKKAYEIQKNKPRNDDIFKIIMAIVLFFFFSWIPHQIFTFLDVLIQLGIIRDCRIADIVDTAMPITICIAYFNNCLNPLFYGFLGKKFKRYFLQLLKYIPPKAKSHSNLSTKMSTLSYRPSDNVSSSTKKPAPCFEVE
# [3] = Luminescence Cell-Based Dose Response HTS to Identify Inhibitors of 5'UTR Stem-Loop Driven Prion Protein mRNA Translation in H4 Neuroglioblastoma Cells. [Related pubchem assays: 1827 (Project Summary), 1813 (Primary HTS)]; type: functional
# Beta-galactosidase = Beta-galactosidase (Escherichia coli, UniProt Q8VNN2); assay: PubChem AID 485352; type: functional
# Beta-galactosidase, sequence (Q8VNN2 whole entry): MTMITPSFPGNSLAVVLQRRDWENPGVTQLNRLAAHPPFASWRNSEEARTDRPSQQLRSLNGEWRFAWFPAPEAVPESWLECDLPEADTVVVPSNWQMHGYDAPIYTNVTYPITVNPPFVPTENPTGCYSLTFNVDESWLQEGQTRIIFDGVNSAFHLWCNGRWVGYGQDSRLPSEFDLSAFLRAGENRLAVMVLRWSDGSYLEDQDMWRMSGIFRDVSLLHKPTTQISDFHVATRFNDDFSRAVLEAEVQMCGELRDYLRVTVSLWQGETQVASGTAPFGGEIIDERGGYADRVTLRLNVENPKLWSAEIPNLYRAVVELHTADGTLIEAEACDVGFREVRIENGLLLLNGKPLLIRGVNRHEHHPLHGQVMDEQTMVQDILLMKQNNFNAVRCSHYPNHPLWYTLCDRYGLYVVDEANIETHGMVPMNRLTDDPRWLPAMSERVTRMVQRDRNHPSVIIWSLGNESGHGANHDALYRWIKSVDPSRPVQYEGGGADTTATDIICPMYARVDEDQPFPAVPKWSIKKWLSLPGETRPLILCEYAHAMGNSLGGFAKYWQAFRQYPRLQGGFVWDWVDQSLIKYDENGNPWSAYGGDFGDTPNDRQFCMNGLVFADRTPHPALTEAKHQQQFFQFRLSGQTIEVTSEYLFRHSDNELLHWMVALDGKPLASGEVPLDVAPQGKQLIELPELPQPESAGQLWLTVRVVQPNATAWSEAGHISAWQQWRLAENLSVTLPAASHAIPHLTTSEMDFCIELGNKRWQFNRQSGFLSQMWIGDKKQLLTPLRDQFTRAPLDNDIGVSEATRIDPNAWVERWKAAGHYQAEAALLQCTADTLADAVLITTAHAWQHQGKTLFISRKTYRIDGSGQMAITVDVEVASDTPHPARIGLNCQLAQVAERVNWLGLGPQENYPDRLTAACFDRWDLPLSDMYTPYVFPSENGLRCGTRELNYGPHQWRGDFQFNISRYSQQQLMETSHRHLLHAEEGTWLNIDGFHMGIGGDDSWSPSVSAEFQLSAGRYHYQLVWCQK
# [4] = biological target: T1, Short transient receptor potential channel 4 (Mus musculus, UniProt Q9QUQ5); assay: mouse TRPC4 channel activators, dose response, cell-based, HEK293 TRPC4/mu-opioid, Fluo-4 calcium (AID 434937); type: functional
# T1 sequence (Q9QUQ5 whole entry): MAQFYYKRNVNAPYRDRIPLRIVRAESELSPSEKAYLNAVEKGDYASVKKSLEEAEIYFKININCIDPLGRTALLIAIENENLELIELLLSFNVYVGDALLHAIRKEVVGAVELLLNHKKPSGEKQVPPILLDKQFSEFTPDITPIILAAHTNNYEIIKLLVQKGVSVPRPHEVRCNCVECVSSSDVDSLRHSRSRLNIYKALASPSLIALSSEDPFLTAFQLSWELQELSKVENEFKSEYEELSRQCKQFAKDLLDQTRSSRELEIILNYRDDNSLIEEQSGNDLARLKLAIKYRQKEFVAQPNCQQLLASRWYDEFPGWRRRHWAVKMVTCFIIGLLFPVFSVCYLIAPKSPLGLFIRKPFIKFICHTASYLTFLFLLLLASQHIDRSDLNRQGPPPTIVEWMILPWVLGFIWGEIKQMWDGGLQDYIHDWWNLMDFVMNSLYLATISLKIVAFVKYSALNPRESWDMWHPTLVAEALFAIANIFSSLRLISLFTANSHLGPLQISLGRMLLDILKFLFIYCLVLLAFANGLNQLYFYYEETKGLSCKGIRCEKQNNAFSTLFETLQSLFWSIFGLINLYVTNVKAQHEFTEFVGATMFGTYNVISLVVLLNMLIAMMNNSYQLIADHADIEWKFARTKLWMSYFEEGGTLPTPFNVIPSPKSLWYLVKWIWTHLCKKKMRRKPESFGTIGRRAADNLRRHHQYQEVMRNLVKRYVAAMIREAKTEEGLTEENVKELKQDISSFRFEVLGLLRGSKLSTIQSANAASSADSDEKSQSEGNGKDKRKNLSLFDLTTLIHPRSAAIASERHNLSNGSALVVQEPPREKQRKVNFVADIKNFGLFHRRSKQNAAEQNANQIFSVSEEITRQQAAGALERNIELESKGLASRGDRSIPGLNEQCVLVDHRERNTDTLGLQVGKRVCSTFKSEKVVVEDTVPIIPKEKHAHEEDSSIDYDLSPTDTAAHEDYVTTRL
# [5] = inhibitors of firefly luciferase expression or activity, dose response, H4 neuroglioma cells, luminescence (AID 1990); type: functional, cell-based
# [6] = inhibitors of SNCA 5'UTR-driven reporter translation, confirmation, H4 neuroglioma cells, luminescence (AID 1988); type: functional, cell-based
# [7] = biological target: Heat shock protein HSP 90-alpha (Homo sapiens, UniProt P07900); type: functional, organism-based
# [8] = growth suppression of PTEN-null colon cells, dose response, cell-based, HCT116 PTEN knockout (AID 1047); type: functional;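 also: HCT116 colon tumor cells with PTEN knocked out; cells exposed to compound for 60 hours before readout; potency for loss of cell viability measured by luminescence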
# [9] = growth suppression of beta-catenin-knockout colon cells, dose response, cell-based, HCT116, human colon tumor (AID 1045); type: functional;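 also: HCT116 colon tumor cells with beta catenin knocked out; cells exposed to compound for 60 hours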
# [10] = biological target: T2, Microphthalmia-associated transcription factor (Homo sapiens, UniProt O75030); assay: TRPM1 promoter luciferase signal decrease, dose response, MITF inhibitor project, cell-based, SK-MEL-5, cherry-picked, set 3 (AID 493073); type: functional
# T2 sequence (O75030 whole entry): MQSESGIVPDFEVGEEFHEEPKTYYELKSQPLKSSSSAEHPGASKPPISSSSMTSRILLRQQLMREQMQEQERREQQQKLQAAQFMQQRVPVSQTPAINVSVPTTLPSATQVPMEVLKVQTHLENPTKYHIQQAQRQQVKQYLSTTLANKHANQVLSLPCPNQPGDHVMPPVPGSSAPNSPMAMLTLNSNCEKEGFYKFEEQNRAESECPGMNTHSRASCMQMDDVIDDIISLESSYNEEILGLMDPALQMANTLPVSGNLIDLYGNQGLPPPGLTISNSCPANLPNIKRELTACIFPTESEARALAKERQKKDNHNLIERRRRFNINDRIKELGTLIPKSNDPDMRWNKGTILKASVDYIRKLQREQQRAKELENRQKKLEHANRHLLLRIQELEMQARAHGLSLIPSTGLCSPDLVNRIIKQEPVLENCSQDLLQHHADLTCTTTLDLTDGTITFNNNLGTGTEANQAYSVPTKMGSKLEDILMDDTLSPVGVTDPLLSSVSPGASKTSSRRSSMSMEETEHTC
# A-375 [11] = assay: A375 melanoma cell viability reduction, dose response, counter-screen for MITF modulator project, cherry-pick samples, set 2 (AID 540335); type: functional, cell-based; settings: Homo sapiens
# A-375 [12] = assay: MITF: Counter assay: A375 proliferation Measured in Cell-Based System Using Plate Reader - 2084-03_Inhibitor_Dose_DryPowder_Activity. [Related pubchem assays (depositor defined):AID488944]; type: functional; settings: Homo sapiens
# [13] = NIH-3T3 fibroblast cytotoxicity, dose response, cytotoxicity control, cell-based, fluorescence, Alamar Blue, secondary assay (AID 2327); type: functional;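 also: NIH-3T3 mouse fibroblasts cultured with fluconazole at 8 µg/mL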
# [14] = biological target: T3, Serine/threonine-protein phosphatase (Candida dubliniensis (strain CD36 / CBS 7987 / NCPF 3949 / NRRLY-17841) (Yeast), UniProt B9W6M3); assay: calcineurin pathway inhibitors in yeast reporter, dose response, S. cerevisiae, CDRE-lacZ, luminescence, secondary (AID 2388); type: functional, cell-based;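 also: yeast reporter cells carrying a calcineurin-responsive lacZ construct stimulated with calcium chloride; luminescent beta-galactosidase reporter signal in whole cells rather than isolated phosphatase activity; potency for inhibition where a drop in reporter signal means calcineurin blockade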
# T3 sequence (B9W6M3 whole entry): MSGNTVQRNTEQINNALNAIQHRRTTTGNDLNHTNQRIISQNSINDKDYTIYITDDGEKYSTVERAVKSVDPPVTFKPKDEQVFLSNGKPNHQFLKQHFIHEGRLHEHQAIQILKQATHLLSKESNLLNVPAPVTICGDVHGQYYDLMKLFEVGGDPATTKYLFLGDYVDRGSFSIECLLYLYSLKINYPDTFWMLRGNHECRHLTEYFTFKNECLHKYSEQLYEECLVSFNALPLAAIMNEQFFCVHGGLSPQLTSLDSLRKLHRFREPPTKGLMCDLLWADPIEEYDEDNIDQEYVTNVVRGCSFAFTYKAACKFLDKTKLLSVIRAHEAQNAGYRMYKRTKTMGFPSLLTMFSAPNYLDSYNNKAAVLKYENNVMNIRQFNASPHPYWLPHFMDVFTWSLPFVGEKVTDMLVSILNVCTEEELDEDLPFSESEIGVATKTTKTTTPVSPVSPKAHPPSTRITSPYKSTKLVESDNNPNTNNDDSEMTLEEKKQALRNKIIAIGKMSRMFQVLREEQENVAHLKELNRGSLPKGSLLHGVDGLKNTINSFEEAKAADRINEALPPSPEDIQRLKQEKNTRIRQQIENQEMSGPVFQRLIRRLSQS
# [15] = C. albicans growth with fluconazole, confirmation, fluorescence, retest (AID 2467); type: functional, cell-based
# [16] = biological target: ATP-dependent molecular chaperone HSP82 (Candida albicans (strain WO-1) (Yeast), UniProt C4YTQ8); assay: loss of DOC-induced GRE-beta-galactosidase reporter signal, dose response, Hsp90 inhibitor project, S. cerevisiae, luminescence (AID 2400); type: functional, cell-based;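 also: beta-galactosidase luminescence from glucocorticoid response element reporter as proxy for Hsp90 function; inhibitor potency where signal loss means Hsp90 inhibition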
# ATP-dependent molecular chaperone HSP82, sequence (C4YTQ8 whole entry): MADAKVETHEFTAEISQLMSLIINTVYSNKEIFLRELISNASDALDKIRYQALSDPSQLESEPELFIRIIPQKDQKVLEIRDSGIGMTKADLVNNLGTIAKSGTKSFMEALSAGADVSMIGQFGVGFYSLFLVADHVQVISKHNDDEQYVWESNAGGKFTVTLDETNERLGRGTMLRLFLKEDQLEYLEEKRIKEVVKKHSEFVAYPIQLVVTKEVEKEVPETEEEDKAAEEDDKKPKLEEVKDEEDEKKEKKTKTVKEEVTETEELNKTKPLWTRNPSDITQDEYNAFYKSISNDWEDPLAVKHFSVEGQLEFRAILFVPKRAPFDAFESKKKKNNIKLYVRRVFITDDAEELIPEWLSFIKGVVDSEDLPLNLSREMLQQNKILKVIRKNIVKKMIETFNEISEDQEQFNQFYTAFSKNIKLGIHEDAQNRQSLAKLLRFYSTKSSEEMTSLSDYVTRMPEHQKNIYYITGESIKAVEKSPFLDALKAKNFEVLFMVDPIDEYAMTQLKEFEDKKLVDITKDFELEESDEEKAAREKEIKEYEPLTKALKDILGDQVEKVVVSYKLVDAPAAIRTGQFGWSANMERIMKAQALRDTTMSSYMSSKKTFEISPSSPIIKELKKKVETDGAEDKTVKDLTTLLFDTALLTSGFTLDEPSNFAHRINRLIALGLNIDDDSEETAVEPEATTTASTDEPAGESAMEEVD
# [17] = biological target: T4, Histone-lysine N-methyltransferase NSD2 (Homo sapiens, UniProt O96028); type: biochemical
# T4 sequence (O96028 whole entry): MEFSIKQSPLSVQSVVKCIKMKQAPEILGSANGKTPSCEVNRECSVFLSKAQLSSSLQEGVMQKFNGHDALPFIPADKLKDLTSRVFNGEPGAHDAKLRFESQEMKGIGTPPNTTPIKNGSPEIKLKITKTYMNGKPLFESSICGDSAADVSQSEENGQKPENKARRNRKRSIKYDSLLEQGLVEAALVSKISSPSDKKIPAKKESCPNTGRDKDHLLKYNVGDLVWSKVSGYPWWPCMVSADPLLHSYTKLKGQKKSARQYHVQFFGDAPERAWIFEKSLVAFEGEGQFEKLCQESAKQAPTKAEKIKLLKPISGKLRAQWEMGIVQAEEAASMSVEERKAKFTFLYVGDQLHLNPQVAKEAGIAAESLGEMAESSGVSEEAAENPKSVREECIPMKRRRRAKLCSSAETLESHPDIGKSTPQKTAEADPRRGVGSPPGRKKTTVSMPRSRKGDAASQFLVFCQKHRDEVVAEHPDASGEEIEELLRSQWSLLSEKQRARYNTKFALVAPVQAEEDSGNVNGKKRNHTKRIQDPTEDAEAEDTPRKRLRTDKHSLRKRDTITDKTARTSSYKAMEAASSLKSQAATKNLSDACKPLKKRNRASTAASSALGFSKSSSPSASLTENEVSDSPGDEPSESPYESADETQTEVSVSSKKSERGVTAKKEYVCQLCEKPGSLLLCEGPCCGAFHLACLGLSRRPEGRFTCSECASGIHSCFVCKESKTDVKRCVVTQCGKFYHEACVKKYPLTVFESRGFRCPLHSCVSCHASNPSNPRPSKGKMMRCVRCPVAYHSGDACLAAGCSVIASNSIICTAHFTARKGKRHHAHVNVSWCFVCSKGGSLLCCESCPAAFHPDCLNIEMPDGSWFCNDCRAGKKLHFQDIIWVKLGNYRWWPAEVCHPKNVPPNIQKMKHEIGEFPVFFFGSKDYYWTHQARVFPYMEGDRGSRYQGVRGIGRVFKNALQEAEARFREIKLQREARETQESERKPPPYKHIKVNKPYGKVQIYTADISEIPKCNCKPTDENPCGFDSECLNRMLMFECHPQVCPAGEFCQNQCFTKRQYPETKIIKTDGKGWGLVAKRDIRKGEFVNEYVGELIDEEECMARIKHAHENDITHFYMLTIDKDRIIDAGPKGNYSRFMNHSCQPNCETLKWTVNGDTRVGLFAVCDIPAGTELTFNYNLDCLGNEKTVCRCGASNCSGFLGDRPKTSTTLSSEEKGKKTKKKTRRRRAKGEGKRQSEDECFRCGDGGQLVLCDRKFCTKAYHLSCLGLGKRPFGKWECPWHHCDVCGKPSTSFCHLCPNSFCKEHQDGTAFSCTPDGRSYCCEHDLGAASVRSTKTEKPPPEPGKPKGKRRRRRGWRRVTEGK
# Ras and Rab interactor 1/Tyrosine-protein kinase ABL1, sequence (P00519 whole entry): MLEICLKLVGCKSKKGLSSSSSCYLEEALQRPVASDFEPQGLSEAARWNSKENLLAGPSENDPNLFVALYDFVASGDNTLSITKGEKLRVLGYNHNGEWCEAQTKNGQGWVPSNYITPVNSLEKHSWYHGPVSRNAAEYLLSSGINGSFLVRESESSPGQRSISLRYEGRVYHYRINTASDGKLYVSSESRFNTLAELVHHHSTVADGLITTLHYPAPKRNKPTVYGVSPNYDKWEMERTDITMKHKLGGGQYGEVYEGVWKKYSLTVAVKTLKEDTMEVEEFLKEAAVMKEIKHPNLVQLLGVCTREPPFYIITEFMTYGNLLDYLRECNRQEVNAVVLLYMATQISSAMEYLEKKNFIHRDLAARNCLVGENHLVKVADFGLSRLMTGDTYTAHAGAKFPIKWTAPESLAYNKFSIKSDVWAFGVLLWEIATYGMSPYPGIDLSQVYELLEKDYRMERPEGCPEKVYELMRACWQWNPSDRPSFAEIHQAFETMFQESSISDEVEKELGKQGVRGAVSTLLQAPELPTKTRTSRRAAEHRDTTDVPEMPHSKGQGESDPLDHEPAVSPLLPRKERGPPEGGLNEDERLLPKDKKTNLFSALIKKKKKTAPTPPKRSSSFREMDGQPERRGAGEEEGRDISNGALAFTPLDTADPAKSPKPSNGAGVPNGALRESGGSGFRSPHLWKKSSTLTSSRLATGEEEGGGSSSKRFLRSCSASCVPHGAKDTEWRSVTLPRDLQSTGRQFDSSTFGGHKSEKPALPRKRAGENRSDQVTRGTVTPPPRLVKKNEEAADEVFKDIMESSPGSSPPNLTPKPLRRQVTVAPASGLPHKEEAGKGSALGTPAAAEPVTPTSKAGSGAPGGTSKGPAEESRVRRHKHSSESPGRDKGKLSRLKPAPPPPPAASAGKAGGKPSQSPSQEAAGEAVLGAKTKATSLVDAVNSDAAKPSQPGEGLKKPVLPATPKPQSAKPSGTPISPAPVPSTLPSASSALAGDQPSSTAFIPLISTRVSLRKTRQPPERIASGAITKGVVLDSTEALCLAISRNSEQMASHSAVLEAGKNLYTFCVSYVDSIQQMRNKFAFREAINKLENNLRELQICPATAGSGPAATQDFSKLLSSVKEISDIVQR
# Ras and Rab interactor 1/Tyrosine-protein kinase ABL1, sequence (Q13671 whole entry): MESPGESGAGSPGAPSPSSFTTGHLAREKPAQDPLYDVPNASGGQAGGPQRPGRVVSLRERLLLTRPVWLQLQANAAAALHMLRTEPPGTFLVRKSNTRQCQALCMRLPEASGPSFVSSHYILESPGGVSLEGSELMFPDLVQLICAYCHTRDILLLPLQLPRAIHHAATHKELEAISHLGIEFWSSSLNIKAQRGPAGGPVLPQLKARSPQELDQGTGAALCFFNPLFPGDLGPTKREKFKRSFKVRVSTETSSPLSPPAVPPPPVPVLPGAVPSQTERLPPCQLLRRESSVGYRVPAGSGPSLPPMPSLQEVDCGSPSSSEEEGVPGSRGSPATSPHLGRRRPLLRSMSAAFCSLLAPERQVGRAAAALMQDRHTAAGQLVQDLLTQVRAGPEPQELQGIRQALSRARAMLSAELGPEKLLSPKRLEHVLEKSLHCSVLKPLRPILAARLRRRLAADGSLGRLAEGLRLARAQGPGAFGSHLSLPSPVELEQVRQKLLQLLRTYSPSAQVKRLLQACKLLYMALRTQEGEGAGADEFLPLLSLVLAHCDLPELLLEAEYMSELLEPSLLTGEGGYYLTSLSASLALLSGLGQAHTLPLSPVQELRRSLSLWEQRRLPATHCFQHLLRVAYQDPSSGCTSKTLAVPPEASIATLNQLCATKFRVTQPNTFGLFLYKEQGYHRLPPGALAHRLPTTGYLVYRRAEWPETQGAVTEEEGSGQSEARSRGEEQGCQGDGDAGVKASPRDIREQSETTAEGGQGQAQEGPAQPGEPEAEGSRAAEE
compound,measurement,setting,value
O=C1CNC(=O)/C1=C\NC12CC3CC(CC(C3)C1)C2,IC50,[1],21 µM (inactive)
COc1ccccc1C(=O)NNC(=S)NC(=O)c1cccs1,IC50,[2],20.4 µM (not active)
same,EC50,[3],13.2 µM (active)
same,EC50,Beta-galactosidase,> 40 µM (inactive)
same,EC50,[4],6.68 µM (active)
same,EC50,[5],> 120 µM (not active)
same,EC50,[6],> 120 µM (not active)
same,AC50,[7],3.85 µM (active)
O=C(/C=C/c1cccc([N+](=O)[O-])c1)c1cccs1,EC50,[8],14.3 µM (active)
same,EC50,[9],10.9 µM (active)
same,AC50,[7],4.16 µM (active)
same,AC50,[10],15.3 µM (active)
same,AC50,A-375 [11],> 35 µM (active)
same,AC50,A-375 [12],> 35 µM (active)
COc1ccc(OC)c(/C=C2\SC(=S)N(NS(=O)(=O)c3ccc(C)cc3)C2=O)c1,EC50,[13],> 150 µM (inactive)
same,EC50,[14],> 180 µM (inactive)
same,EC50,[15],832 nM (active)
same,EC50,[16],5.2 µM (active)
same,AC50,[17],15.9 µM (active)
